Data: patent EP0853084B1, “Substituted purine derivatives as vitronectin receptor antagonists” (HOECHST AKTIENGESELLSCHAFT, priority 1996, dated 1998)

target: humanen Vitronectinrezeptor (VnR) αvβ3 (Homo sapiens, UniProt P05106+P06756); experiment: Inhibition of binding of Kistrin to human vitronectin receptor (αvβ3 ELISA test, K/VnR); conditions: 10 µM test compound, read-out: K/VnR Inhibierung bei 10 µM (in %)
Text: Als Testmethode, nach der beispielsweise die antagonistische Wirkung der erfindungsgemäßen Verbindungen auf den Vitronectinrezeptor αvβ3 bestimmt werden kann, wird nachfolgend die Inhibierung der Bindung von Kistrin an humanen Vitronectinrezeptor (VnR) beschrieben (αvβ3-ELISA-Test; die Testmethode wird bei der Auflistung der Testergebnisse mit "K/VnR" abgekürzt).
Kistrin wird nach den Methoden von Dennis et al., wie in Proc. Natl. Acad. Sci. USA 1989, 87, 2471-2475 und PROTEINS: Structure, Function and Genetics 1993, 15, 312-321, beschrieben, gereinigt.
Humaner Vitronectinrezeptor wird aus der menschlichen Plazenta nach der Methode von Pytela et al., Methods Enzymol. 1987, 14.4, 475 gewonnen. Humaner Vitronectinrezeptor αvβ3 kann auch aus einigen Zellinien (zum Beispiel aus 293 Zellen, einer humanen embryonalen Nierenzellinie), die mit DNA Sequenzen für beide Untereinheiten αv und β3 des Vitronectinrezeptors co-transfziert sind, gewonnen werden. Die Untereinheiten wurden mit Octylglycosid extrahiert und anschließend über Concanavalin A, Heparin-Sepharose und S-300 chromatographiert.
Murine monoklonale Antikörper, spezifisch für die β3 Untereinheit des Vitronectinrezeptors, werden nach der Methode von Newman et al., Blood, 1985, 227-232, oder nach einem ähnlichen Verfahren hergestellt. Das Kaninchen Fab 2 anti-Maus Fc Konjugat an Meerrettich-Peroxidase (anti-Maus Fc HRP) wurde von Pel Freeze (Katalog Nr. 715 305-1) bezogen.
Die Fähigkeit von Substanzen die Bindung von Kistrin an den Vitronectinrezeptor zu inhibieren, kann mit einem ELISA-Test ermittelt werden. Zu diesem Zweck werden Nunc 96 well-Mikrotiterplatten mit einer Lösung von Kistrin (0.002 mg/ml) nach der Methode von Dennis et al., wie in PROTEINS: Structure, Function and Genetics 1993, 15, 312-321, beschrieben, belegt. Die Platten werden dann zweimal mit PBS/0.05 % Tween-20 gewaschen und durch Inkubieren (60 min) mit RinderserumAlbumin (BSA, 0.5 %, RIA Güteklasse oder besser) in Tris-HCl (50 mM), NaCl (100 mM), MgCl2 (1 mM), CaCl2 (1 mM), MnCl2 (1 mM), pH 7, geblockt. Man stellt Lösungen von bekannten Inhibitoren und von den Testsubstanzen in Konzentrationen von 2 x 10^-12 bis 2 x 10^-6 mol/l in Assay-Puffer (BSA (0.5 %, RIA-Güteklasse oder besser) in Tris-HCl (50 mM), NaCl (100 mM), MgCl2 (1 mM), CaCl2 (1 mM), MnCl2 (1 mM), pH 7) her. Die geblockten Platten werden entleert, und jeweils 0.025 ml dieser Lösung, die eine definierte Konzentration (2 x 10^-12 bis 2 x 10^-6 mol/l) entweder an einem bekannten Inhibitor oder an einer Testsubstanz enthält, werden in jedes well gegeben. 0.025 ml einer Lösung des Vitronectinrezeptors im Testpuffer (0.03 mg/ml) werden in jedes well der Platte pipettiert und die Platte wird auf einem Schüttler 60-180 min bei Raumtemperatur inkubiert. In der Zwischenzeit wird eine Lösung (6 ml/Platte) eines für die β3-Untereinheit des Vitronectinrezeptors spezifischen murinen monoklonalen Antikörpers im Assay-Puffer (0.0015 mg/ml) hergestellt. Zu dieser Lösung gibt man einen zweiten Kaninchen-Antikörper (0.001 ml Stammlösung/6 ml der murinen monoklonalen anti-β3-Antikörper-Lösung), der ein anti-Maus Fc HRP Antikörper Konjugat darstellt, und dieses Gemisch aus murinem anti-β3 Antikörper und Kaninchen anti-Maus Fc HRP Antikörper Konjugat läßt man während der Zeit der Rezeptor-Inhibitor-Inkubation inkubieren. Die Testplatten werden viermal mit PBS-Lösung, die 0.05 % Tween-20 enthält, gewaschen und man pipettiert jeweils 0.05 ml/well der Antikörpermischung in jedes well der Platte und inkubiert 60-180 min. Die Platte wird viermal mit PBS/0.05 % Tween-20 gewaschen und anschließend mit 0.05 ml/well einer PBS-Lösung, die 0.67 mg/ml o-Phenylendiamin und 0.012 % H2O2 enthält, entwickelt. Alternativ hierzu kann o-Phenylendiamin in einem Puffer (pH 5) eingesetzt werden, der Na3PO4 und Zitronensäure enthält. Die Farbentwicklung wird mit 1 N H2SO4 (0.05 ml/well) gestoppt. […]

Sequence of humanen Vitronectinrezeptor (VnR) αvβ3 (P06756 31-889 limits assumed): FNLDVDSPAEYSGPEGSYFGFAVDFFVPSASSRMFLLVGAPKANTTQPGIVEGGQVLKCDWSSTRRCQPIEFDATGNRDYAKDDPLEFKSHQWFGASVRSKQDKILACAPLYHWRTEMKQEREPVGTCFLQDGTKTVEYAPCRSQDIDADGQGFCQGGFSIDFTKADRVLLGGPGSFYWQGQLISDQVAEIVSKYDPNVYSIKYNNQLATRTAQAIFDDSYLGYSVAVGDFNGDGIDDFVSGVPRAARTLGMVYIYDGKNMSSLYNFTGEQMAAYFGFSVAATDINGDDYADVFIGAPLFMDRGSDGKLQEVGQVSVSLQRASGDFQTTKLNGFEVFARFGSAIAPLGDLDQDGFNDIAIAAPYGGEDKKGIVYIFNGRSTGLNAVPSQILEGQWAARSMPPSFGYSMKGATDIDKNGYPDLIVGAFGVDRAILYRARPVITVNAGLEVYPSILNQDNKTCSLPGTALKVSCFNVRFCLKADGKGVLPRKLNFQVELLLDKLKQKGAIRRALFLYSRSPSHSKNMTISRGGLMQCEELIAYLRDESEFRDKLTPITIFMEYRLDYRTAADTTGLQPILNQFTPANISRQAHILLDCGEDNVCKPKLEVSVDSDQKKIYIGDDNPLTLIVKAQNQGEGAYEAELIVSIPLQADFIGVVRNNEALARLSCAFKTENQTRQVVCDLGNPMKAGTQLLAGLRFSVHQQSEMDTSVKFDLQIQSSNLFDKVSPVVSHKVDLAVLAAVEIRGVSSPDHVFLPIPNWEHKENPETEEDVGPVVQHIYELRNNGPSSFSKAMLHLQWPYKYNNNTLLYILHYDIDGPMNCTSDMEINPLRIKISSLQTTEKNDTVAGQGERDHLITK
Sequence of humanen Vitronectinrezeptor (VnR) αvβ3 (P06756 891-1048 partner limits assumed): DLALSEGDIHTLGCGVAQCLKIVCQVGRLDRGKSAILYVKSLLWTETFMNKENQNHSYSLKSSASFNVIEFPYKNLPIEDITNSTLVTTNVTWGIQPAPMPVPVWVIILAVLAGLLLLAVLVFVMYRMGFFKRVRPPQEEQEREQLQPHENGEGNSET
Sequence of humanen Vitronectinrezeptor (VnR) αvβ3 (P05106 27-788): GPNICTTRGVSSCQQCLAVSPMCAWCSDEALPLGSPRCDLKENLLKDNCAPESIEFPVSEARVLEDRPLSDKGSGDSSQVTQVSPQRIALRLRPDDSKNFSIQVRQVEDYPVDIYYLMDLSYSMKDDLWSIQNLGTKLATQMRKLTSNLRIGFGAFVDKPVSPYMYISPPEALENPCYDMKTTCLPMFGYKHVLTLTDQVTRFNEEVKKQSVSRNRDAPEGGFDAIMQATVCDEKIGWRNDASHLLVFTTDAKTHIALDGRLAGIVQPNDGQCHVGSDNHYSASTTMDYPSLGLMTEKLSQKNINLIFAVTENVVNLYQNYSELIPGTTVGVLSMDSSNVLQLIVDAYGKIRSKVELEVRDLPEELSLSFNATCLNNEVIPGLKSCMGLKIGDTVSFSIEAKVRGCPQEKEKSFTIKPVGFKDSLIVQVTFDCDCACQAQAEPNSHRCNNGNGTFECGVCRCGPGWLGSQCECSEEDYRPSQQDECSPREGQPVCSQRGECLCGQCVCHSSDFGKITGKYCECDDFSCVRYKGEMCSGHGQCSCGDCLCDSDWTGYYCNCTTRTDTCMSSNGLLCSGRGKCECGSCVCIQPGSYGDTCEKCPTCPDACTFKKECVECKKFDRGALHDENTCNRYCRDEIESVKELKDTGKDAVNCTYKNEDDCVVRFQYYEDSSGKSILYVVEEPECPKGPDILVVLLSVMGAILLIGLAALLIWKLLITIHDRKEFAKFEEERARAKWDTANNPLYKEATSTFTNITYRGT

Structure (SMILES)	inhibition at 10 µM [%]
N=C(N)NCCCCCNc1ncnc2c1ncn2C[C@H](NC(=O)OCc1ccccc1)C(=O)O [Beispiel 1, N^6-(1-(5-Guanidinopentyl))-N^9-(3-(2S-(benzyloxycarbonylamino)propionsäure))-adenin]	75
N=C(N)NCCCCNc1ncnc2c1ncn2C[C@H](NC(=O)OCc1ccccc1)C(=O)O [Beispiel 2, N^6-(1-(4-Guanidinobutyl))-N^9-(3-(2S-(benzyloxycarbonylamino)propionsäure))-adenin]	80
N=C(N)NCCCNc1ncnc2c1ncn2C[C@H](NC(=O)OCc1ccccc1)C(=O)O [Beispiel 3, N^6-(1-(3-Guanidinopropyl))-N^9-(3-(2S-(benzyloxycarbonylamino)propionsäure))-adenin]	77
O=C(N[C@@H](Cn1cnc2c(NCCCCNC3=NCCN3)ncnc21)C(=O)O)OCc1ccccc1 [Beispiel 4, N^6-(1-(4-(4,5-Dihydro-1H-imidazol-2-ylamino)butyl))-N^9-(3-(2S-(benzyloxycarbonylamino)propionsäure))-adenin]	93
N=C(N)NCCCn1cnc2c(NCC[C@H](NC(=O)OCc3ccccc3)C(=O)O)ncnc21 [Beispiel 12, N^6-(4-(2S-(Benzyloxycarbonylamino)buttersäure))-N^9-(1-(3-guanidinylpropyl))-adenin]	86
O=C(N[C@@H](CCNc1ncnc2c1ncn2CCCNC1=NCCN1)C(=O)O)OCc1ccccc1 [Beispiel 13, N^6-(4-(2S-(Benzyloxycarbonylamino)buttersäure))-N^9-(1-(3-(4,5-dihydro-1H-imidazol-2-ylamino)-propyl))-adenin]	92
N=C(N)NCCCCCn1cnc2c(NC[C@H](NC(=O)OCc3ccccc3)C(=O)O)ncnc21 [Beispiel 14, N^6-(3-(2S-(Benzyloxycarbonylamino)propionsäure))-N^9-(1-(5-guanidinylpentyl))-adenin]	84
NCCCCCn1cnc2c(NC[C@H](NC(=O)OCc3ccccc3)C(=O)O)ncnc21 [Beispiel 14c, N^6-(3-(2S-(Benzyloxycarbonylamino)propionsäure))-N^9-(1-(5-aminopentyl))-adenin]	22
O=C(N[C@@H](CNc1ncnc2c1ncn2CCCCCNC1=NCCN1)C(=O)O)OCc1ccccc1 [Beispiel 15, N^6-(3-(2S-(Benzyloxycarbonylamino)propionsäure))-N^9-(1-(5-(4,5-dihydro-1H-imidazol-2-ylamino)pentyl))-adenin]	92
N=C(N)NCCCn1cnc2c(NC[C@H](NC(=O)OCc3ccccc3)C(=O)O)ncnc21 [Beispiel 16, N^6-(3-(2S-(Benzyloxycarbonylamino)propionsäure))-N^9-(1-(3-guanidinylpropyl))-adenin]	85
NCCCn1cnc2c(NC[C@H](NC(=O)OCc3ccccc3)C(=O)O)ncnc21 [Beispiel 16b, N^6-(3-(2S-(Benzyloxycarbonylamino)propionsäure))-N^9-(1-(3-aminopropyl))-adenin]	29
N=C(N)NCCCCn1cnc2c(NC[C@H](NC(=O)OCc3ccccc3)C(=O)O)ncnc21 [Beispiel 17, N^6-(3-(2S-(Benzyloxycarbonylamino)propionsäure))-N^9-(1-(4-guanidinylbutyl))-adenin]	92
O=C(N[C@@H](CNc1ncnc2c1ncn2CCCCNC1=NCCN1)C(=O)O)OCc1ccccc1 [Beispiel 18]	95
O=C(N[C@@H](Cn1cnc2c(N3CCC(C(=O)NC4=NCCCN4)CC3)ncnc21)C(=O)O)OCc1ccccc1 [Beispiel 19, 2S-Benzyloxycarbonylamino-3-(6-(4-(1,4,5,6-tetrahydropyrimidin-2-ylcarbamoyl)-piperdin-1-yl)-purin-9-yl)-propionsäure]	97
O=C(N[C@@H](Cn1cnc2c(NCCCCNc3nc4ccccc4[nH]3)ncnc21)C(=O)O)OCc1ccccc1 [Beispiel 23, 3-(6-((4-(Benzimidazol-2-ylamino)-butyl)-amino)-purin-9-yl)-2S-benzyloxycarbonyl-amino-propionsäure]	93
O=C(N[C@@H](Cn1cnc2c(N3CCC(CNC4=NCCN4)CC3)ncnc21)C(=O)O)OCc1ccccc1 [Beispiel 24, 2S-Benzyloxycarbonylamino-3-(6-(4-((4,5-dihydro-1H-imidazol-2-ylamino)-methyl)-piperidin-1-yl)-purin-9-yl)-propionsäure]	95
O=C(N[C@H](Cn1cnc2c(N3CCC(CNC4=NCCN4)CC3)ncnc21)C(=O)O)OCc1ccccc1 [Beispiel 25]	89
N=C(N)NCC1CCN(c2ncnc3c2ncn3C[C@H](NC(=O)OCc2ccccc2)C(=O)O)CC1 [Beispiel 26, 2S-Benzyloxycarbonylamino-3-(6-(4-(guanidinomethyl)-piperidin-1-yl)-purin-9-yl)-propionsäure]	91
